Results on two compounds are retold here after patent US4847293A, “Tetraenyl prostaglandins” (priority 1988, dated 1989).

The nature of one data set: Diarrhea Assay. Type of data set: in vivo, male Charles River rats. To be noted: in vivo.
A further data set concerns diarrhea. Description: Diarrhea Assay. Type of data set: in vivo, male Charles River rats.

Each structure is given as a SMILES string.

In the case of `COC(=O)CC/C=C\CC[C@H]1C(=O)C[C@@H](O)[C@@H]1/C=C/CC(C)(O)/C=C/C1=CCCC1` (relative stereo) [Example 1, methyl 7-[3α-hydroxy-2β-(4-hydroxy-4-methyl-6-(1'-cyclopentenyl)-1,5-trans,trans-hexadienyl)-5-oxocyclopentane]-1-α-hept-4-cis-enoate], in “Diarrhea Assay” (ratio of rat diarrhea ED50 to Pavlov pouch antisecretory ED50, read-out: Thrapeutic Index ED50 diarrhea/ED50 antisecretory), the selectivity ratio was 160000. For the same compound, the “Diarrhea Assay Rat (iv) ED50” value with diarrhea (Rat (iv) per table head, method text: intragastric, fasted rats, up to eight hours) was found to be 3.2 mg/kg.

Consider `COC(=O)CC/C=C\CC[C@H]1C(=O)C[C@@H](O)[C@@H]1/C=C/CC(C)(O)/C=C/C=C(C)C` (relative stereo) [Example 2], for which, in “Diarrhea Assay” (Rat (iv) per table head, method text: intragastric, fasted rats, up to eight hours, read-out: Diarrhea Assay Rat (iv) ED50), the TD50 came out at 3.2 mg/kg. In the data set with diarrhea (Rat (iv), at 3200 mcg/kg), the “Diarrhea Assay Rat (iv), result in words” value is “inactive”.
